From paper PMC5880951, “Pentocin MQ1: A Novel, Broad-Spectrum, Pore-Forming Bacteriocin From Lactobacillus pentosus CS2 With Quorum Sensing Regulatory Mechanism and Biopreservative Potential” (Frontiers in Microbiology, 2018)

Key:
[1] = system: Bacillus spp.; details: ref Mota-Meira et al., 2000; cited from earlier work
Protocol: (§1) Pentocin MQ1 was strongly inhibitory against L. monocytogenes NCTC 10890, M. luteus ATCC 10240, and B. cereus ATCC14579 at micromolar concentrations. High activity at low concentration is a desirable property of natural biopreservatives (Bali et al., [2016]). MIC-values for nisin A against Micrococcus spp. and Bacillus spp. (Mota-Meira et al., [2000]) are lower than that of pentocin MQ1. […] After 120 min ...

[2] = system: Micrococcus spp.; details: ref Mota-Meira et al., 2000; cited from earlier work
Protocol: as §1

[3] = system: Micrococcus luteus ATCC 10240; assay: Membrane permeabilization (pore formation), SYTOX green; assay type: cell-based; details: 5 μM SYTOX green, pentocin MQ1 at 5 X MIC, nisin as positive control, Real-Time PCR read-out, triplicates
Protocol: Pore formation assay was done to understand the mechanism of action of pentocinMQ1. M. luteus was grown in Mueller-Hinton broth until OD600nm = 0.45 after which 5 μM SYTOX green dye (Invitrogen, USA) was added. Ninety microliters of stained bacteria was added to MicroAmp Fast Optical 96-well reaction plate (Applied Biosystems, Life Technologies, USA). After a stable line base was attained, 10 μl of pentocin MQ1 (5 X MIC) was added to the stained bacteria. Sodium phosphate buffer (5 mM) and nisin (Sigma-Aldrich, USA) were added to stained bacteria in different wells to serve as negative and positive controls, respectively. Experiments were done in triplicates. Fluorescence as a result of binding of SYTOX green to leaked intracellular DNA was monitored using Real-Time PCR (Applied Biosystems, USA).

[4] = system: M. luteus; details: within 30 min; ref Barbour et al., 2016; cited from earlier work
From the text: The two main modes of action of LAB bacteriocins against Gram-positive bacteria are pore formation and inhibition of cell wall synthesis (Cotter et al., [2013]). […] This implies that pore formation is a more rapid killing mechanism.

Substance | MIC compared with pentocin MQ1 [1] | MIC compared with pentocin MQ1 [2] | fluorescence intensity (SYTOX green binding to leaked intracellular DNA) [3] | increase in fluorescence [4]
nisin A | lower | lower |  | 
nisin |  |  | higher fluorescence intensity | caused an increase in fluorescence intensity
